Experimental data: ChEMBL document CHEMBL1129859, “Synthesis and antibacterial activity of (1R, 5R, 6R)-2-tert-butyl-6-(1-hydroxyethyl)penem-3-carboxylic acid” (Bioorg Med Chem Lett, 1997)
Values after ≈ are worked out from the molar mass of the structure shown.

Columns and labels:
[1] = system: Klebsiella aerogenes; experiment: Tested in vitro for the antibacterial activity against Enterobacter aerogenes strain C 32; assay type: functional
[2] = system: Staphylococcus aureus; experiment: Tested in vitro for the antibacterial activity against Staphylococcus aureus strain V 41; assay type: functional
[3] = system: Streptococcus pyogenes; experiment: Tested in vitro for the antibacterial activity against Streptococcus pyogenes strain C 203; assay type: functional
[4] = system: Klebsiella; experiment: Tested in vitro for the antibacterial activity against Klebsiella sp. strain KAE; assay type: functional
[5] = system: Staphylococcus aureus; experiment: Tested in vitro for the antibacterial activity against Staphylococcus aureus strain X 1.1; assay type: functional
[6] = system: Escherichia coli; experiment: Tested in vitro for the beta lactamase inhibition of Escherichia coli TEM; assay type: functional
[7] = system: Morganella morganii; experiment: Tested in vitro for the antibacterial activity against Morganella morganii strain PR 15; assay type: functional
[8] = system: Citrobacter freundii; experiment: Tested in vitro for the antibacterial activity against Citrobacter freundii strain CF 17; assay type: functional
[9] = system: Enterobacter cloacae; experiment: Tested in vitro for the antibacterial activity against Enterobacter cloacae strain EB 5; assay type: functional
[10] = system: Enterobacter cloacae; experiment: Tested in vitro for the antibacterial activity against Enterobacter cloacae strain 265 A; assay type: functional
[11] = system: Streptococcus pneumoniae; experiment: Tested in vitro for the antibacterial activity against Streptococcus pneumoniae strain Park I; assay type: functional
[12] = system: Acinetobacter; experiment: Tested in vitro for the antibacterial activity against Acinetobacter sp. strain AC 12; assay type: functional
[13] = system: Serratia marcescens; experiment: Tested in vitro for the antibacterial activity against Serratia marcescens strain SE 3; assay type: functional
[14] = system: Escherichia coli; experiment: Tested in vitro for the antibacterial activity against Escherichia coli strain N 10; assay type: functional
[15] = system: Providencia stuartii; experiment: Tested in vitro for the antibacterial activity against Providencia stuartii strain PR 33; assay type: functional
[16] = system: Shigella sonnei; experiment: Tested in vitro for the antibacterial activity against Shigella sonnei strain N 9; assay type: functional
[17] = system: Serratia marcescens; experiment: Tested in vitro for the antibacterial activity against Serratia marcescens strain X 99; assay type: functional
[18] = system: Klebsiella; experiment: Tested in vitro for the antibacterial activity against Klebsiella sp. strain X 68; assay type: functional
[19] = system: Klebsiella aerogenes; experiment: Tested in vitro for the antibacterial activity against Enterobacter aerogenes strain EB 17; assay type: functional
[20] = system: Salmonella; experiment: Tested in vitro for the antibacterial activity against Salmonella sp. strain X 514; assay type: functional
[21] = system: Salmonella; experiment: Tested in vitro for the antibacterial activity against Salmonella sp. strain 1335; assay type: functional
[22] = system: Escherichia coli; experiment: Tested in vitro for the antibacterial activity against Escherichia coli strain EC 14; assay type: functional
[23] = system: Enterococcus; experiment: Tested in vitro for the antibacterial activity against Enterococcus sp. strain 2041; assay type: functional
[24] = system: Haemophilus influenzae; experiment: Tested in vitro for the antibacterial activity against Haemophilus influenzae (b-lac-) strain CL; assay type: functional
[25] = system: Escherichia coli; experiment: Tested in vitro for the antibacterial activity against Escherichia coli strain TEM; assay type: functional
[26] = system: Klebsiella; experiment: Tested in vitro for the antibacterial activity against Klebsiella sp. strain X 26; assay type: functional
[27] = system: Staphylococcus epidermidis; experiment: Tested in vitro for the antibacterial activity against Staphylococcus epidermidis strain 270; assay type: functional
[28] = system: Staphylococcus aureus; experiment: Tested in vitro for the antibacterial activity against Staphylococcus aureus strain X 400; assay type: functional
[29] = system: Enterococcus; experiment: Tested in vitro for the antibacterial activity against Enterococcus sp. strain X 66; assay type: functional
[30] = system: Enterobacter cloacae; experiment: Tested in vitro for the beta lactamase inhibition of Enterobacter cloacae; assay type: functional, organism-based
[31] = system: Haemophilus influenzae; experiment: Tested in vitro for the antibacterial activity against Haemophilus influenzae (b-lac+) strain 76; assay type: functional
[32] = system: Staphylococcus aureus; experiment: Tested in vitro for the antibacterial activity against Staphylococcus aureus strain S 13 E; assay type: functional
[33] = system: Providencia rettgeri; experiment: Tested in vitro for the antibacterial activity against Providencia rettgeri strain C 24; assay type: functional
[34] = system: Staphylococcus epidermidis; experiment: Tested in vitro for the antibacterial activity against Staphylococcus epidermidis strain 222; assay type: functional
[35] = Half-life was determined; assay type: ADME; conditions: human
[36] = system: Providencia stuartii; experiment: […] Tested in vitro for the antibacterial activity against Providencia stuartii strain PR 33; assay type: functional
[37] = system: Citrobacter freundii; experiment: Tested in vitro for the antibacterial activity against Citrobacter freundii strain CF17; assay type: functional

| MIC [1] | MIC [2] | MIC [3] | MIC [4] | MIC [5] | IC50 [6] | MIC [7] | MIC [9] | MIC [10] | MIC [11] | MIC [12] | MIC [13] | MIC [14] | MIC [16] | MIC [17] | MIC [18] | MIC [19] | MIC [20] | MIC [21] | MIC [22] | Compound | also measured |
| --- | --- | --- | --- | --- | --- | --- | --- | --- | --- | --- | --- | --- | --- | --- | --- | --- | --- | --- | --- | --- | --- |
| 8 µg/mL | 1 µg/mL | 0.06 µg/mL | 4 µg/mL | 0.25 µg/mL | 3000 nM | 8 µg/mL | 32 µg/mL | 32 µg/mL | 0.03 µg/mL | 8 µg/mL | 64 µg/mL | 4 µg/mL | 4 µg/mL | 16 µg/mL | 2 µg/mL | 32 µg/mL | 1 µg/mL | 4 µg/mL | 4 µg/mL | C[C@@H](O)[C@H]1C(=O)N2C(C(=O)[O-])=C(C(C)(C)C)O[C@H]12.[K+] | MIC [8]: 16 µg/mL; MIC [15]: 4 µg/mL; MIC [23]: 16 µg/mL; MIC [24]: 0.5 µg/mL; MIC [25]: 4 µg/mL; MIC [26]: 1 µg/mL; MIC [27]: 4 µg/mL; MIC [28]: 2 µg/mL; MIC [29]: 2 µg/mL; IC50 [30]: 2 nM; MIC [31]: 0.5 µg/mL; MIC [32]: 1 µg/mL; MIC [33]: 4 µg/mL; MIC [34]: 0.25 µg/mL |
| 128 µg/mL | 1 µg/mL | 0.12 µg/mL | 64 µg/mL | 0.5 µg/mL | 50 nM | 32 µg/mL | 128 µg/mL | 128 µg/mL | 0.12 µg/mL | 16 µg/mL | 128 µg/mL | 64 µg/mL | 64 µg/mL | 128 µg/mL | 64 µg/mL | 128 µg/mL | 32 µg/mL | 128 µg/mL | 128 µg/mL | C[C@@H](O)[C@H]1C(=O)N2C(C(=O)[O-])=C(C(C)(C)C)S[C@H]12.[K+] | MIC [8]: 128 µg/mL; half-life [35]: 16 days; MIC [15]: 32 µg/mL; MIC [23]: 32 µg/mL; MIC [24]: 8 µg/mL; MIC [25]: 128 µg/mL; MIC [26]: 8 µg/mL; MIC [27]: 0.5 µg/mL; MIC [28]: 4 µg/mL; MIC [29]: 16 µg/mL; IC50 [30]: 300 nM; MIC [31]: 8 µg/mL; MIC [32]: 4 µg/mL; MIC [33]: 8 µg/mL; MIC [34]: 2 µg/mL |
|  |  |  |  |  | 40 nM |  |  |  |  |  |  |  |  |  |  |  |  |  |  | O=C(O)[C@H]1/C(=C/CO)O[C@@H]2CC(=O)N21 [CLAVULANIC ACID] | IC50 [30]: 100000 nM |

| Compound | MIC [1] | MIC [2] | MIC [3] | MIC [4] | MIC [5] | IC50 [6] | MIC [7] | MIC [9] | MIC [10] | MIC [11] | MIC [12] | MIC [13] | MIC [14] | MIC [16] | MIC [17] | MIC [18] | MIC [19] | MIC [20] | MIC [21] | MIC [22] | also measured |
| --- | --- | --- | --- | --- | --- | --- | --- | --- | --- | --- | --- | --- | --- | --- | --- | --- | --- | --- | --- | --- | --- |
| CC(C)(O/N=C(\C(=O)N[C@@H]1C(=O)N2C(C(=O)[O-])=C(C[n+]3ccccc3)CS[C@H]12)c1csc(N)n1)C(=O)O [CEFTAZIDIME] | 2 µg/mL (≈ 3.66 µM) | 8 µg/mL (≈ 14.6 µM) | 0.06 µg/mL (≈ 0.11 µM) | 0.5 µg/mL (≈ 0.915 µM) | 8 µg/mL (≈ 14.6 µM) |  | 0.25 µg/mL (≈ 0.457 µM) | 0.12 µg/mL (≈ 0.22 µM) | 32 µg/mL (≈ 58.5 µM) | 0.03 µg/mL (≈ 0.0549 µM) | 1 µg/mL (≈ 1.83 µM) | 0.06 µg/mL (≈ 0.11 µM) | 0.06 µg/mL (≈ 0.11 µM) | 0.03 µg/mL (≈ 0.0549 µM) | 0.12 µg/mL (≈ 0.22 µM) | 0.12 µg/mL (≈ 0.22 µM) | 0.12 µg/mL (≈ 0.22 µM) | 0.06 µg/mL (≈ 0.11 µM) | 0.25 µg/mL (≈ 0.457 µM) | 0.03 µg/mL (≈ 0.0549 µM) | MIC [36]: 0.06 µg/mL (≈ 0.11 µM); MIC [37]: 0.5 µg/mL (≈ 0.915 µM); MIC [23]: 16 µg/mL (≈ 29.3 µM); MIC [24]: 0.06 µg/mL (≈ 0.11 µM); MIC [25]: 0.03 µg/mL (≈ 0.0549 µM); MIC [26]: 0.06 µg/mL (≈ 0.11 µM); MIC [27]: 16 µg/mL (≈ 29.3 µM); MIC [28]: 64 µg/mL (≈ 117 µM); MIC [29]: 128 µg/mL (≈ 234 µM); MIC [31]: 0.03 µg/mL (≈ 0.0549 µM); MIC [32]: 64 µg/mL (≈ 117 µM); MIC [33]: 0.03 µg/mL (≈ 0.0549 µM); MIC [34]: 16 µg/mL (≈ 29.3 µM) |
